According to ChEMBL document CHEMBL1201862, “PubChem BioAssay data set” (2004):
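Dose response: 5 concentrations. Exposure: 48 h. Format: 96-well plates. Endpoint: linear interpolation; highest concentration if not reached. GI50: concentration for 50% inhibition of growth.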 Calls of active or inactive are those of the source. No stated cut-off is given here; in the data, active = GI50 up to about 1.1 µM and inactive = higher.

Legend:
Experiment in all cases: growth of human tumour cells (NCI), 48 h
[1] = test system: UACC-257
[2] = test system: M14
[3] = test system: CAKI-1
[4] = test system: SK-MEL-2
[5] = test system: CCRF-CEM
[6] = test system: Hs-578T
[7] = test system: HCC 2998
[8] = test system: TK-10
[9] = test system: RXF 393
[10] = test system: OVCAR-4
[11] = test system: UACC-62
[12] = test system: NCI-H522
[13] = test system: HOP-62
[14] = test system: A498
[15] = test system: MDA-MB-435
[16] = test system: LOX IMVI
[17] = test system: SR
[18] = test system: SN12C
[19] = test system: U-251
[20] = test system: SK-MEL-5

Row | SMILES | GI50 [1] | GI50 [2] | GI50 [3] | GI50 [4] | GI50 [5] | GI50 [6] | GI50 [7] | GI50 [8] | GI50 [9] | GI50 [10] | GI50 [11] | GI50 [12] | GI50 [13] | GI50 [14] | GI50 [15] | GI50 [16] | GI50 [17] | GI50 [18] | GI50 [19] | GI50 [20]
1 | CC1=NN(c2nc(N)nc(/C(C#N)=C\c3cccc([N+](=O)[O-])c3)n2)C(C)(C)C1 | 20.7 µM (inactive) | 20 µM (inactive) | 12.4 µM (inactive) | 16.4 µM (inactive) | 10.8 µM (inactive) | 18.5 µM (inactive) | 12.2 µM (inactive) | 15.7 µM (inactive) | 5.19 µM (inactive) | 10 µM (inactive) | 19.6 µM (inactive) | 2.92 µM (inactive) | 5.13 µM (inactive) | > 23 µM (inactive) | 11.2 µM (inactive) | 7.13 µM (inactive) | 30.1 µM (inactive) | 25.2 µM (inactive) | 6.78 µM (inactive) | 20.5 µM (inactive)
2 | C[Si](C)(C)CCOCN(C(=O)C1=CCC2(CC1)OCCO2)c1ccccc1I | 20.9 µM (inactive) | 18.2 µM (inactive) | 24.2 µM (inactive) | 17.5 µM (inactive) | 25.4 µM (inactive) | 15.8 µM (inactive) | 21.1 µM (inactive) | 27.6 µM (inactive) | 17.5 µM (inactive) | 21.1 µM (inactive) | 16.9 µM (inactive) | 21.1 µM (inactive) | 20.7 µM (inactive) | 12.4 µM (inactive) | 13.9 µM (inactive) | 29 µM (inactive) | 15.8 µM (inactive) | 28.1 µM (inactive) | 24.9 µM (inactive) | 11.3 µM (inactive)
3 | COC(=O)c1cc2ccc(OC(C)=O)c(OC(C)=O)c2cn1 | 14.4 µM (inactive) | 19 µM (inactive) | 20.8 µM (inactive) | 18.3 µM (inactive) | 2.29 µM (inactive) | > 10 µM (inactive) | 20.8 µM (inactive) | 20.6 µM (inactive) | 17.4 µM (inactive) | 16.7 µM (inactive) | 2.09 µM (inactive) | 17.4 µM (inactive) | 25.5 µM (inactive) | 14 µM (inactive) | 1.73 µM (inactive) | 1.42 µM (inactive) | 2.65 µM (inactive) | 3.11 µM (inactive) | 3.64 µM (inactive) | 16.1 µM (inactive)
4 | COc1ccc2nc3cc(Cl)ccc3c(NCCCN(CCCl)CCCl)c2c1 | 0.122 µM (active) | 0.0408 µM (active) | < 0.01 µM (active) | 0.14 µM (active) | < 0.01 µM (active) | 0.0328 µM (active) | 0.0596 µM (active) | 0.452 µM (active) | 0.0107 µM (active) | 0.0845 µM (active) | 0.0156 µM (active) | 0.0105 µM (active) | 0.0301 µM (active) | 0.0163 µM (active) | 0.0323 µM (active) | 0.0126 µM (active) | < 0.01 µM (active) | 0.014 µM (active) | 0.0185 µM (active) | 0.034 µM (active)
5 | CSCCC(N)C(=O)NCCNc1ccc(NCCNC(=O)C(N)CCSC)c2c1C(=O)c1ccccc1C2=O (configuration not stated) | 3.25 µM (inactive) | 3.38 µM (inactive) | 1.03 µM (active) | 3.41 µM (inactive) | 0.528 µM (active) | 1.02 µM (active) | 0.716 µM (active) | 2.09 µM (inactive) | 1.91 µM (inactive) | 1.67 µM (inactive) | 1.23 µM (inactive) | 0.199 µM (active) | 0.783 µM (active) | 1.72 µM (inactive) | 1.86 µM (inactive) | 0.624 µM (active) | 0.197 µM (active) | 0.374 µM (active) | 0.6 µM (active) | 3.48 µM (inactive)
6 | COc1ccc(COCC[C@H](C)OC2OC(CO[Si](C)(C)C(C)(C)C)C(O)C(O)C2O)cc1 (some centres not stated) | > 100 µM (inactive) | > 100 µM (inactive) | > 100 µM (inactive) | > 100 µM (inactive) | > 100 µM (inactive) | > 100 µM (inactive) | > 100 µM (inactive) | > 100 µM (inactive) | > 100 µM (inactive) | > 100 µM (inactive) | > 100 µM (inactive) | > 100 µM (inactive) | > 100 µM (inactive) | > 100 µM (inactive) | > 100 µM (inactive) | > 100 µM (inactive) | > 100 µM (inactive) | > 100 µM (inactive) | > 100 µM (inactive) | > 100 µM (inactive)
7 | COC(=O)c1ccc(-n2c(C)nc(=O)c(-c3ccccc3)c2C)cc1 | > 100 µM (inactive) | > 100 µM (inactive) | > 100 µM (inactive) | 30.7 µM (inactive) | > 100 µM (inactive) | > 100 µM (inactive) | > 100 µM (inactive) | > 100 µM (inactive) | > 100 µM (inactive) | > 100 µM (inactive) | – | > 100 µM (inactive) | > 100 µM (inactive) | > 100 µM (inactive) | > 100 µM (inactive) | > 100 µM (inactive) | > 100 µM (inactive) | > 100 µM (inactive) | > 100 µM (inactive) | > 100 µM (inactive)
8 | COc1cc(/C=C\c2ccc(C)cc2)cc(OC)c1OC | 0.00904 µM (active) | 0.00723 µM (active) | < 0.01 µM (active) | < 0.01 µM (active) | 0.00227 µM (active) | 0.0244 µM (active) | 0.0191 µM (active) | 0.0731 µM (active) | < 0.01 µM (active) | < 0.01 µM (active) | 0.00885 µM (active) | 0.00323 µM (active) | 0.0355 µM (active) | < 0.01 µM (active) | 0.00264 µM (active) | 0.00433 µM (active) | 0.00841 µM (active) | 0.0105 µM (active) | 0.00441 µM (active) | 0.00336 µM (active)
9 | N#Cc1c(-c2ccc(Cl)cc2)c2c([nH]c1=O)-c1cc([N+](=O)[O-])ccc1CCC2 | 21.1 µM (inactive) | 24.1 µM (inactive) | 19.9 µM (inactive) | 18 µM (inactive) | 25.2 µM (inactive) | 25.2 µM (inactive) | 16.9 µM (inactive) | 34.8 µM (inactive) | 16.1 µM (inactive) | 19.6 µM (inactive) | 13.5 µM (inactive) | 13.3 µM (inactive) | 20.3 µM (inactive) | 16.1 µM (inactive) | 29.9 µM (inactive) | 17.5 µM (inactive) | 28.4 µM (inactive) | 17.2 µM (inactive) | 17.5 µM (inactive) | 16.6 µM (inactive)
10 | CCSc1nc(N2CCOCC2)c2cn[nH]c2n1 | > 100 µM (inactive) | > 100 µM (inactive) | 28.2 µM (inactive) | 41.5 µM (inactive) | 60.5 µM (inactive) | 33.9 µM (inactive) | > 100 µM (inactive) | 47.8 µM (inactive) | > 100 µM (inactive) | 62.5 µM (inactive) | 20.7 µM (inactive) | 35 µM (inactive) | > 100 µM (inactive) | 4.6 µM (inactive) | 41.8 µM (inactive) | 32.4 µM (inactive) | 56.1 µM (inactive) | 52.5 µM (inactive) | > 100 µM (inactive) | 50.6 µM (inactive)
11 | COC(=O)c1sc2c(c1C(=O)OC)/C(=N/c1ccc(OC)cc1)S/C2=N\c1ccc(OC)cc1 | 1.32 µM (inactive) | 1.45 µM (inactive) | 2.05 µM (inactive) | 0.624 µM (active) | 0.104 µM (active) | 1.5 µM (inactive) | 1.69 µM (inactive) | 1.62 µM (inactive) | 0.47 µM (active) | 1.35 µM (inactive) | 1.45 µM (inactive) | 0.541 µM (active) | 0.789 µM (active) | 1.65 µM (inactive) | 0.785 µM (active) | 0.258 µM (active) | 0.485 µM (active) | 0.644 µM (active) | 0.348 µM (active) | 1.21 µM (inactive)
12 | O=C(O)CC1NCc2cc3ccccc3nc21 (configuration not stated) | > 100 µM (inactive) | > 100 µM (inactive) | > 100 µM (inactive) | > 100 µM (inactive) | > 100 µM (inactive) | > 100 µM (inactive) | > 100 µM (inactive) | > 100 µM (inactive) | > 100 µM (inactive) | > 100 µM (inactive) | > 100 µM (inactive) | > 100 µM (inactive) | > 100 µM (inactive) | > 100 µM (inactive) | > 100 µM (inactive) | > 100 µM (inactive) | > 100 µM (inactive) | > 100 µM (inactive) | > 100 µM (inactive) | > 100 µM (inactive)
13 | ON=C(CC(O)(C(F)(F)Cl)C(F)(F)Cl)CC(O)(C(F)(F)Cl)C(F)(F)Cl | 4.38 µM (inactive) | – | 5.46 µM (inactive) | 3.03 µM (inactive) | 5.56 µM (inactive) | 3.52 µM (inactive) | 4.5 µM (inactive) | 7.66 µM (inactive) | 2.7 µM (inactive) | 4.92 µM (inactive) | 3.46 µM (inactive) | 3.21 µM (inactive) | 2.84 µM (inactive) | 2.87 µM (inactive) | 4.07 µM (inactive) | 5.26 µM (inactive) | 4.58 µM (inactive) | 4.67 µM (inactive) | 3.46 µM (inactive) | 4.2 µM (inactive)
14 | COC(=O)C1OC(O[C@H]2CC[C@]3(C)[C@H]4CC=C5[C@@H]6CC(C)(C)CC[C@]6(C(=O)OC)CC[C@@]5(C)[C@]4(C)CC[C@H]3C2(C)C)C(O)C(O)C1O (some centres not stated) | 19.5 µM (inactive) | 16.2 µM (inactive) | 8.85 µM (inactive) | 17.3 µM (inactive) | 5.66 µM (inactive) | 19.9 µM (inactive) | 7.76 µM (inactive) | – | 5.62 µM (inactive) | 14.4 µM (inactive) | 14.7 µM (inactive) | 15.4 µM (inactive) | 18 µM (inactive) | 19.8 µM (inactive) | 16.5 µM (inactive) | 6.67 µM (inactive) | 3.72 µM (inactive) | 13.1 µM (inactive) | 11.4 µM (inactive) | 18.2 µM (inactive)
